Reference: patent US20140329776A1, “Mitochondria-Targeted Antioxidants for Treatment of Age-Related Brain Disorders” (MITOTECH S.A., priority 2011, published 2014)

System: Wistar rats
Assay: muscle strength measurement 4 hours after ethanol narcosis
Format: in vivo, rat
Details: SkQ1 250 nM after ethanol narcosis; p<0.05
Method: FIG. 6 is a graphic representation showing muscle strength measurement 4 hours after ethanol narcosis in % to intact control. *−p<0.05 to negative control, #−p<0.05 to intact control;
In these experiments, 6 groups of experimental animals (Wistar rats) were used. (1) The Intact Control group (n=12), had no ethanol narcosis, and were orally administered a normal isotonic 0.9% NaCl solution; (2) the Negative Control group (n=12) was orally administered a normal physiological solution after ethanol narcosis; (3) The SkQ1 50 nM control group (n=12) was orally administered SkQ1 in a concentration 50 nM after ethanol narcosis; (4) The SkQ1 250 nM control group (n=12) was orally administered SkQ1 in a concentration of 250 nM after ethanol narcosis; (5) The SkQ1 1250 nM control group (n=12) was orally administered SkQ1 in a concentration of 1250 nM after ethanol narcosis; (6) the SkQ1 1250 nM intr control group (n=13) was intraperitoneally administered SkQ1 in a concentration of 1250 nM after ethanol narcosis.
In the Negative Control group ethanol intoxication caused a decrease of locomotor activity compared to Intact Control group: decreased track length (p<0.05), movement time (p<0.05), mean speed (p<0.05) and increased immobilization time (p<0.05) (FIG. 4). […]

CC1=C(C)C(=O)C(CCCCCCCCCC[P+](c2ccccc2)(c2ccccc2)c2ccccc2)=CC1=O [SkQ1, plastoquinonyl decyltriphenyl-phosphonium]
muscle strength: increasing
